# Measured values: US20160324770A1, “INTRATHECAL ADMINISTRATION, PREFERABLY INTRAVENTRICULAR, OF MTOR INHIBITORS FOR THE THERAPY OF SOME NEURODEGENERATIVE, NEUROINFLAMMATORY AND NEURO-ONCOLOGIC DISEASES” (priority 2012, published 2016)
# Read-outs that look alike come from different tables or passages of the source.
# Columns and labels:
# [1] = Blood and brain concentrations (LC-MS) in mice treated intraperitoneally for a week with graduated doses; type: in vivo, CD1 mice; details: for concentration at 1 week: CD1, mouse
# Protocol: A quantitative analysis of everolimus in blood and tissue samples was performed with the isotopic dilution method using the LC-MS technique. The chromatographic system was the following: Agilent 1290 Infinity HPLC equipped with a binary pump and HiP Auto Sampler model G4226A. The injection volume was 2 μL, the analytical column used was a Phenomenex Kinetics PFP UHPLC column (Phenomenex, Milan, Italy) […], 1.7 μm, 100 Å, temperature controlled at 55° C. A gradient elution was performed using as solvent A: water with 5 mM ammonium formiate, solvent B: methanol with 0.1% formic acid. The elution profile was the following: solvent A 30%/solvent B 70% for 3 minutes, solvent A 1%/solvent B 99% from 3 to 6 minutes, at a flow velocity of 0.25 mL/min. This setup enabled an elution time of 2.5 minutes. Every injection was preceded by a cycle of washing the injector system with methanol.
# Mass spectrometry was conducted using a Q-TOF MS detector model G6540A (Agilent, Germany) equipped with a Dual AJS ESI (electrospray ionization interface) system. The instrument parameters were the following: sheath gas flow: […], sheath gas temperature: 300° C., gas flow: 6 L/min, gas temperature: 300° C., nebulizer pressure: 35 psi, ion spray voltage: 5500 V.
# Both everolimus and the isotopic internal standard were detected as ammonium adducts in the positive ion mode.
# Everolimus was extracted from whole blood in 1 mL of a methanol solution containing 10% ammonium acetate in order to enable precipitation of most of the serum protein.
# The internal standard used was isotopic 4d-2C^13-everolimus added to the extraction solution at a concentration of 200 ng/mL.
# The blood samples were freeze-dried and subsequently extracted. The extraction process was carried out in a sonication bath for approx. 10 minutes to ensure complete haemolysis and release of the drug from the cell material.
# The samples were centrifuged (10 minutes, 4000 rpm, 10° C.) and the supernatant was then separated from the pellet.
# The solutions thus obtained were then purified by means of HybridSPE®-Phospholipid solid-phase extraction cartridges with a total volume of 1 ml (Sigma Aldrich, Milan) to eliminate the excess lipid material potentially present. The process was preliminarily validated both for everolimus and for the internal standard in solution and in matrices, providing a yield >98% w/v.
# The process of extraction from brain samples, divided into right and left hemispheres, was similar to the one for whole blood. The tissue samples were weighed and subsequently freeze-dried. After freeze-drying the samples were finely chopped to facilitate subsequent extraction. 1 mL of the methanol solution was then added to 1% v/v of ammonium formiate with 200 ng/mL of internal standard. The samples were then subjected to 10 minutes of sonication and vortexed to ensure complete extraction of the drug. Then followed centrifugation (10 minutes, 4000 rpm, 10° C.) and the supernatant was separated from the pellet. As previously described, the solutions were purified by means of HybridSPE®-Phospholipid solid-phase extraction cartridges with a total volume of 1 ml (Sigma Aldrich, Milan) to eliminate the excess lipid material. The samples were then immediately submitted to LC-MS analysis.
# [2] = test system: EAE (Experimental Autoimmune Encephalomyelite) mice; experiment: EAE mouse model, intraventricular pump from clinical score 1; type: in vivo, SJL/j mice
# Text: (§1) We carried out trials in mouse models exemplifying 3 families of neurological diseases: • EAE (Experimental Autoimmune Encephalomyelite, model of neuroinflammatory disease): SJL/j mice were immunized with two subcutaneous injections, performed 7 days apart, of proteolipid protein (PLP139-151), Freund's adjuvant and inactivated Mycobacterium tuberculosis. The disease severity was rated with a clinical score: 0=healthy; 1=tail weakness; 2=rear limb ataxia and/or paresis; 3=rear limb paralysis and/or front limb paresis; 4=tetraplegia; 5=state of agony or death • AD (Alzheimer's Disease, model of neurodegenerative disease): AD triple transgenic mouse (3xTg-AD) supplied by Jackson Laboratories (http://jaxmice.jax.org/strain/004807.html) Their memory was evaluated using the Passive Avoidance and Radial Maze tests; • TSC (Tuberous sclerosis complex, model of neuro-oncologic disease): TSC1 mouse with TSC1 gene within a flox cassette, supplied by Jackson Laboratories (http://jaxmice.jax.org/strain/005680.html)
# 30 SJL/j mice were immunized and started developing the disease after 11 days. As they developed the neurological deficit and reached a score of 1, they were operated on and an Alzet 1004 pump containing everolimus or a vehicle was positioned. The purpose of this was to represent the usual clinical situation in which the patient goes to the doctor's on the occasion of the first attack. Generally speaking, a diagnosis is made and a high-dose steroid therapy is applied, with good regression of the symptoms, but in the majority of cases other attacks will occur and they will be followed by an increasingly less satisfactory regression, with a gradual increase in residual disability.
# In our experimental set, the weight and clinical score of affected mice were monitored daily.
# [3] = test system: AD triple transgenic mouse (3xTg-AD); experiment: Alzheimer's disease mouse model, intraventricular osmotic pumps; type: in vivo, 3xTg-AD mouse; details: local application, same dosage as in EAE mice
# Text: as §1
# We applied intraventricular catheters and everolimus-secreting osmotic pumps implanted subcutaneously on the back of 12 AD mice for 4 weeks. We infused a vehicle to an equal number of mice. We injected everolimus into 10 healthy mice and, finally, the vehicle into another 10. The appropriate pump was replaced after 4 weeks and kept in place for another 4. […]
# [4] = Blood and brain concentrations and metabolites (LC-MS) after intraventricular (intracerebral) administration by osmotic pump; type: in vivo; details: mice that had received intrathecal treatment
# [5] = test system: Subependymal Giant Cell Astrocytomas (SEGAs); details: systemic administration, cited from earlier work
structure (smiles),measurement,setting,value
CO[C@H]1C[C@@H]2CC[C@@H](C)[C@@](O)(O2)C(=O)C(=O)N2CCCC[C@H]2C(=O)O[C@H]([C@H](C)C[C@@H]2CC[C@@H](OCCO)[C@H](OC)C2)CC(=O)[C@H](C)/C=C(\C)[C@@H](O)[C@@H](OC)C(=O)[C@H](C)C[C@H](C)/C=C/C=C/C=C/1C [everolimus],concentration at 1 week,"[1]; brain, intraperitoneal, 0.6125 mg/Kg, heading: Brain conc 1, one week, lowest of 3 dosages (C=0.6125 mg/Kg)",46 ng/g
same,Level in the blood,[1]; all 3 dosages of the one-week study,did not reach measurable levels in the blood
same,concentration at 1 week,"[1]; female, brain, left hemisphere (sx), ip, females, 0.6125 mg/kg i.p. for a week, normalized to weight of a hemisphere, read-out: Brain concentration, hemisphere sx (converted)",48 ng/g
same,concentration at 1 week,"[1]; female, brain, left hemisphere (sx), ip, females, 1.25 mg/kg i.p. for a week, normalized to weight of a hemisphere, read-out: Brain concentration, hemisphere sx (converted)",80 ng/g
same,concentration at 1 week,"[1]; female, brain, left hemisphere (sx), ip, females, 2.5 mg/kg i.p. for a week, normalized to weight of a hemisphere, read-out: Brain concentration, hemisphere sx (converted)",152 ng/g
same,concentration at 1 week,"[1]; female, brain, right hemisphere (dx), ip, females, 0.6125 mg/kg i.p. for a week, normalized to weight of a hemisphere, read-out: Brain concentration, hemisphere dx (converted)",44 ng/g
same,concentration at 1 week,"[1]; female, brain, right hemisphere (dx), ip, females, 1.25 mg/kg i.p. for a week, normalized to weight of a hemisphere, read-out: Brain concentration, hemisphere dx (converted)",72 ng/g
same,concentration at 1 week,"[1]; female, brain, right hemisphere (dx), ip, females, 2.5 mg/kg i.p. for a week, normalized to weight of a hemisphere, read-out: Brain concentration, hemisphere dx (converted)",132 ng/g
same,concentration at 1 week,"[1]; female, whole blood, ip, females, 0.6125 mg/kg intraperitoneally for a week, n = 2, read-out: Blood concentration",15 ± 3 ng/mL
same,concentration at 1 week,"[1]; female, whole blood, ip, females, 1.25 mg/kg intraperitoneally for a week, n = 2, read-out: Blood concentration",25 ± 5 ng/mL
same,concentration at 1 week,"[1]; female, whole blood, ip, females, 2.5 mg/kg intraperitoneally for a week, n = 2, read-out: Blood concentration",46 ± 4 ng/mL
same,concentration at 1 week,"[1]; male, brain, left hemisphere (sx), ip, males, 0.6125 mg/kg i.p. for a week, normalized to weight of a hemisphere, read-out: Brain concentration, hemisphere sx (converted)",36 ng/g
same,concentration at 1 week,"[1]; male, brain, left hemisphere (sx), ip, males, 1.25 mg/kg i.p. for a week, normalized to weight of a hemisphere, read-out: Brain concentration, hemisphere sx (converted)",100 ng/g
same,concentration at 1 week,"[1]; male, brain, left hemisphere (sx), ip, males, 2.5 mg/kg i.p. for a week, normalized to weight of a hemisphere, read-out: Brain concentration, hemisphere sx (converted)",176 ng/g
same,concentration at 1 week,"[1]; male, brain, right hemisphere (dx), ip, males, 0.6125 mg/kg i.p. for a week, normalized to weight of a hemisphere, read-out: Brain concentration, hemisphere dx (converted)",56 ng/g
same,concentration at 1 week,"[1]; male, brain, right hemisphere (dx), ip, males, 1.25 mg/kg i.p. for a week, normalized to weight of a hemisphere, read-out: Brain concentration, hemisphere dx (converted)",148 ng/g
same,concentration at 1 week,"[1]; male, brain, right hemisphere (dx), ip, males, 2.5 mg/kg i.p. for a week, normalized to weight of a hemisphere, read-out: Brain concentration, hemisphere dx (converted)",208 ng/g
same,concentration at 1 week,"[1]; male, whole blood, ip, males, 0.6125 mg/kg intraperitoneally for a week, n = 2, read-out: Blood concentration",16 ± 4 ng/mL
same,concentration at 1 week,"[1]; male, whole blood, ip, males, 1.25 mg/kg intraperitoneally for a week, n = 2, read-out: Blood concentration",42 ± 4 ng/mL
same,concentration at 1 week,"[1]; male, whole blood, ip, males, 2.5 mg/kg intraperitoneally for a week, n = 2, read-out: Blood concentration",59 ± 3 ng/mL
same,Blood concentration (LC-MS),[1]; mice treated with intraperitoneal administration,in the therapeutic range
same,Immunosuppressive effect of intrathecal administration,[2]; EAE mice,powerful local immunosuppressive effect
same,Severity of the following 2 attacks,"[2]; intraventricular pump implanted at score 1, vs controls",not much milder than in the controls
same,Severity of the first attack,"[2]; intraventricular pump implanted at score 1, vs vehicle",reduction in the severity of the first attack
same,Attacks after the third attack,"[2]; intraventricular pump, controls continued to have recurring attacks",no longer manifested attacks
same,Clinical score after the third attack,[2]; score scale 0=healthy to 5=agony or death,0
same,Body weight after the third attack,"[2]; treated EAE mice, FIG. 3",fully recovered
same,Pharmacological activity observed in AD mice,[3],an increase in autophagy
same,Blood concentration (detectable only in traces),[4],< 1 mg/kg
same,Study endpoint (volumetric reduction in SEGAs),[5]; 28 patients affected by TS,reached the endpoint
same,Severity grade of adverse reactions,"[5]; many adverse reactions, most of infectious origin",1-3
